From patent US6887876B2, “Benzamidine derivatives” (Ortho-McNeil Pharmaceutical, Inc., priority 2000, dated 2005)
pKi: −log10 of the molar value. Read-outs that look alike come from different tables or passages of the source.

Legend:
[1] = molecular target: μ-opioid receptor (Rattus norvegicus, UniProt P33535); experiment: Rat brain μ-opioid receptor binding assay ([3H]DAMGO); settings: for Ki: rat forebrain preparation, [3H]DAMGO, 25° C., read-out: μ-Opioid Receptor Binding (Ki nM)
[2] = molecular target: T1, δ-opioid receptor (Homo sapiens, UniProt P41143); experiment: Scintillation screening assay for δ-opioid receptor binding ([3H]bremazocine); settings: cloned human receptor in CHO cell membranes, [3H]bremazocine 2.4 nM; for inhibition at 25 µM: read-out: δ-Opioid Receptor Binding (% Inhibition), % I @ 25 μM
T1 construct: purchased Receptor Biology, Baltimore, Md; host or cells: CHO cells (membranes)
T1 sequence (P41143 whole entry): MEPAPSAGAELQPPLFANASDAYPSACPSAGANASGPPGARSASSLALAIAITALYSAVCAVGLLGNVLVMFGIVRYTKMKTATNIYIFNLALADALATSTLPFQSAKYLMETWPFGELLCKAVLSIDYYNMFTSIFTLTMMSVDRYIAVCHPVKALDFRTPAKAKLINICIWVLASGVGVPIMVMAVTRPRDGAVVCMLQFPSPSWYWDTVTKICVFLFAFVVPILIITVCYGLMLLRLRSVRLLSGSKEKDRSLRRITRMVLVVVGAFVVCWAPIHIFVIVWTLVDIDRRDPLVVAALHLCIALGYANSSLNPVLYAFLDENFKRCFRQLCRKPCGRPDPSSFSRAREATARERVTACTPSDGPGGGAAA
Source text: Scintillation Screening Assay for δ-Opioid Receptor Binding
This is a receptor based screen to detect the competitive binding of test compounds at the δ-opioid receptor against the radioligand, [^3H]bremazocine (S.A.=25.5 Cl/mmol, Dupont/NEN, Cambridge, Mass.). Unknown compounds that bind to the same receptor as the radioligand will compete for the receptor and reduce the amount of radioligand which binds to the receptor. This is detected as a decreased scintillation signal from that particular incubation. The greater affinity an unknown has for the receptor, the larger the observed decrease in […] to the receptor; thus the assay is in the format of an inhibition study.
The receptor is a cloned human cDNA expressed in mammalian CHO cells. Membranes prepared from these cells are purchased from Receptor Biology, Baltimore, Md. The reaction buffer is composed as follows: HEPES (50 mM final), MgCl.6H2O (5 mM final), o-phenanthroline (20 mg/l), aprotinin (10 mg/l), Pefabloc SC (250 mg/l), leupeptin (0.5 mg/l), pepstatin A (0.7 mg/l), trypsin inhibitor (25 mg/l), chymostatin (10 mg/l), pH=7.2. Naloxone, 10 uM, is used to define non-specific binding. The assay employs filtration to capture receptor and bound ligand.
The receptor (membrane) preparation (28 ug protein) is allowed to incubate with the opioid receptor radioligand ([^3H]bremazocine, 2.4 nM) in 96-well plates until equilibrium is reached (>2 hr). Following incubation with the radioligand at 23° C., the well contents are filtered onto 96-well Whatman GF/C filter plates using a Packard cell harvester. Radioligand bound to the receptor also remains on the filter. The filters are rinsed three times with 0.5 mL of physiological saline (0.9% NaCl) to remove any unbound radioligand from the filter. Filters are dried and scintillation fluid is then added to the filters which emits light in proportion to the amount of radioactivity on the filter which is determined using an Packard Topcount scintillation counter. Data are reported as percent inhibition of control binding.

[3] = molecular target: δ-opioid receptor (Rattus norvegicus, UniProt P33533); experiment: Rat brain δ-opioid receptor binding assay ([3H]DPDPE); settings: for Ki: rat forebrain preparation, [3H]DPDPE, 25° C., read-out: δ-Opioid Receptor Binding (Ki nM)
Sequence of δ-opioid receptor (Rattus norvegicus, UniProt P33533) (P33533 whole entry): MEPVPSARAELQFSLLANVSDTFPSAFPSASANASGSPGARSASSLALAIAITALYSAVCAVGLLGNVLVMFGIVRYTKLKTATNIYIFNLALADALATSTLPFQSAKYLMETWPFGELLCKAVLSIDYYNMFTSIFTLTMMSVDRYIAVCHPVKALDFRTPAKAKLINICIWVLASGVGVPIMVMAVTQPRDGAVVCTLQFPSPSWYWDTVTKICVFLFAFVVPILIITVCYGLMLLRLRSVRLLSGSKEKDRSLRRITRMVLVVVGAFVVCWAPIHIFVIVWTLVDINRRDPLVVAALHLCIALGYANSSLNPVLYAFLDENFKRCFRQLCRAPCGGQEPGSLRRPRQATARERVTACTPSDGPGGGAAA

Sequence of μ-opioid receptor (P33535 whole entry): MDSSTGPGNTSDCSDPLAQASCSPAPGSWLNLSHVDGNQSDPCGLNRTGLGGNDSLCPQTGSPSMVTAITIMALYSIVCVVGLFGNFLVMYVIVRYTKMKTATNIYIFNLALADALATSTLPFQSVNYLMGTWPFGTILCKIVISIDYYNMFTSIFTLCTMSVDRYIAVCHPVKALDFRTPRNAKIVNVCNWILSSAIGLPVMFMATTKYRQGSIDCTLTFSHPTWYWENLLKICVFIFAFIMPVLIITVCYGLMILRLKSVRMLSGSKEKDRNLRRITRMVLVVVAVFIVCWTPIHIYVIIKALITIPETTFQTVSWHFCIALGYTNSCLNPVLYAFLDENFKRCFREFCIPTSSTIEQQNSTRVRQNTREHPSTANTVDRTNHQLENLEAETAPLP

Compound: CCCN1CCN(C(=Nc2ccccc2Cl)c2ccc(C(=O)OC)cc2)CC1 [Compound 34, 4-[[(2-chlorophenyl)imino](4-propyl-1-piperazinyl)methyl]-benzoic acid methyl ester]
- pKi [1]: 5.68
- inhibition at 25 µM [2]: 90%
- pKi [3]: 7.06

Compound: CCN1CCN(C(=Nc2cccc(Br)c2)c2ccc(C(=O)OC)cc2)CC1 [Compound 30, 4-[[(3-bromophenyl)imino](4-ethyl-1-piperazinyl)methyl]-benzoic acid methyl ester]
- Ki [1]: > 10000 nM
- inhibition at 25 µM [2]: 99%
- Ki [3]: 638 nM

Compound: CCN1CCN(C(=Nc2cccc(F)c2)c2ccc(C(=O)OC)cc2)CC1 [Compound 32, 4-[(4-ethyl-1-piperazinyl)[(3-fluorophenyl)imino]methyl]-benzoic acid methyl ester]
- pKi [1]: < 5.00
- inhibition at 25 µM [2]: 97%
- pKi [3]: 6.59

Compound: CCCN(CCC)C(=O)c1ccc(C(=Nc2ccccc2F)N2CCN(CC)CC2)cc1 [Compound 11, 4-[(4-ethyl-1-piperazinyl)[(2-fluorophenyl)imino]methyl]-N,N-dipropyl-benzamide]
- Ki [1]: > 10000 nM
- inhibition at 25 µM [2]: 98%
- Ki [3]: 256 nM

Compound: CCN1CCN(C(=Nc2cc(Cl)cc(Cl)c2)c2ccc(C(=O)N(CC)CC)cc2)CC1 [Compound 13, 4-[[(3,5-dichlorophenyl)imino](4-ethyl-1-piperazinyl)methyl]-N,N-diethyl-benzamide]
- Ki [1]: > 10000 nM
- inhibition at 25 µM [2]: 100%
- Ki [3]: 277 nM

Compound: 4-[[(2-chlorophenyl)imino](4-ethyl-1-piperazinyl)methyl]-benzoic acid methyl ester [Compound 31]
- Ki [1]: > 10000 nM
- δ-Opioid Receptor Binding (% Inhibition), % I @ 25 μM [2]: 100%
- Ki [3]: 222 nM

Compound: CCN1CCN(C(=Nc2cccc(F)c2)c2ccc(C(=O)OC)cc2)CC1 [Compound 33, 4-[(4-ethyl-1-piperazinyl)[(3-fluorophenyl)imino]methyl]-benzoic acid methyl ester]
- δ-Opioid Receptor Binding (% Inhibition), % I @ 25 μM [2]: 100%

Compound: COC(=O)c1ccc(C(=Nc2ccccc2Cl)N2CCCN(CCc3ccccc3)CC2)cc1 [Compound 59, 4-[[(2-chlorophenyl)imino][hexahydro-4-(2-phenylethyl)-1H-1,4-diazepin-1-yl]methyl]-benzoic acid methyl ester]
- Ki [1]: 197 nM
- Ki [3]: 101 nM

Compound: CCN1CCN(C(=Nc2ccccc2F)c2ccc(C(=O)OC)cc2)CC1 [Compound 33, 4-[(4-ethyl-1-piperazinyl)[(3-fluorophenyl)imino]methyl]-benzoic acid methyl ester]
- Ki [1]: > 10000 nM
- Ki [3]: 230 nM

Compound: CCCN1CCN(C(=Nc2cccc(Cl)c2)c2ccc(C(=O)N(CC)CC)cc2)CC1 [Compound 14, 4-[[(3-chlorophenyl)imino](4-propyl-1-piperazinyl)methyl]-N,N-diethyl-benzamide]
- pKi [1]: 5.02
- inhibition at 25 µM [2]: 101%
- pKi [3]: 6.75

Compound: COC(=O)c1ccc(C(=Nc2ccccc2)N2CCCN(CCc3ccccc3)CC2)cc1 [Compound 58, 4-[[hexahydro-4-(2-phenylethyl)-1H-1,4-diazepin-1-yl](phenylimino)methyl]-benzoic acid methyl ester]
- Ki [1]: 232 nM
- Ki [3]: 820 nM

Compound: C=CCN1CCN(C(=Nc2ccccc2)c2cccc(C(=O)N(CC)CC)c2)CC1 [Compound 53, N,N-diethyl-3-[(phenylimino)[4-(2-propenyl)-1-piperazinyl]methyl]-benzamide]
- Ki [1]: > 10000 nM
- Ki [3]: 7030 nM

Compound: C=CCN1CCN(C(=Nc2ccccc2)c2ccc(C(=O)N(CC)CC)cc2)CC1 [Compound 15, N,N-diethyl-4-[(phenylimino)[4-(2-propenyl)-1-piperazinyl]methyl]-benzamide]
- pKi [1]: < 5.00
- pKi [3]: 6.07

Compound: CCN(CC)C(=O)c1ccc(C(=Nc2ccccc2)N2CCN(CCc3cccs3)CC2)cc1 [Compound 22, N,N-diethyl-4-[(phenylimino)[4-[2-(2-thienyl)ethyl]-1-piperazinyl]methyl]-benzamide]
- pKi [1]: < 5.00
- pKi [3]: 6.12

Compound: COC(=O)c1ccc(C(=Nc2ccccc2C(F)(F)F)N2CCN(CCc3ccccc3)CC2)cc1 [Compound 41, 4-[[4-(2-phenylethyl)-1-piperazinyl][[2-(trifluoromethyl)phenyl]imino]methyl]-benzoic acid methyl ester]
- Ki [1]: > 10000 nM
- Ki [3]: > 10000 nM

Compound: CCCN(CCC)C(=O)c1ccc(C(=Nc2ccccc2Cl)N2CCN(CC)CC2)cc1 [Compound 7, 4-[[(2-chlorophenyl)imino](4-ethyl-1-piperazinyl)methyl]-N,N-dipropyl-benzamide]
- Ki [1]: 3930 nM
- inhibition at 25 µM [2]: 97%
- Ki [3]: 292 nM

Compound: 4-[(4-ethenyl-1-piperazinyl)(phenylimino)methyl]-benzoic acid methyl ester [Compound 36]
- Ki [1]: > 10000 nM
- Ki [3]: 954 nM

Compound: COC(=O)c1ccc(C(=Nc2ccccc2Cl)N2CCN(CCc3ccccc3)CC2)cc1 [Compound 40, 4-[[(2-chlorophenyl)imino][4-(2-phenylethyl)-1-piperazinyl]methyl]-benzoic acid methyl ester]
- Ki [1]: > 10000 nM
- Ki [3]: > 10000 nM

Compound: COC(=O)c1ccc(C(=Nc2ccccc2Cl)N2CCN(CCc3cccs3)CC2)cc1 [Compound 43, 4-[[(2-chlorophenyl)imino][4-[2-(2-thienyl)ethyl]-1-piperazinyl]methyl]-benzoic acid methyl ester]
- Ki [1]: > 10000 nM
- Ki [3]: > 10000 nM

Compound: CCN(CC)C(=O)c1ccc(C(=Nc2ccccc2Cl)N2CCCN(CCc3ccccc3)CC2)cc1 [Compound 57, 4-[[(2-chlorophenyl)imino][hexahydro-4-(2-phenylethyl)-1H-1,4-diazepin-1-yl]methyl]-N,N-diethyl-benzamide]
- pKi [1]: 6.21
- pKi [3]: 7.53

Compound: 4-[[(2-chlorophenyl)imino](4-propyl-1-piperazinyl)methyl]-N,N-diethyl-benzamide [Compound 18]
- Ki [1]: > 10000 nM
- Ki [3]: 157 nM

Compound: CCN(CC)C(=O)c1ccc(C(=Nc2ccccc2C(F)(F)F)N2CCN(CCOC)CC2)cc1 [Compound 26, N,N-diethyl-4-[[4-(2-methoxyethyl)-1-piperazinyl][[2-(trifluoromethyl)phenyl]imino]methyl]-benzamide]
- pKi [1]: 5.53
- pKi [3]: 7.64

Compound: CCN1CCN(C(=Nc2ccccc2OC)c2ccc(C(=O)OC)cc2)CC1 [Compound 48, 4-[(4-ethyl-1-piperazinyl)[(2-methoxyphenyl)imino]methyl]-benzoic acid methyl ester]
- inhibition at 25 µM [2]: 60%

Compound: CCN1CCN(C(=Nc2cccc(F)c2)c2ccc(C(=O)N(CC)CC)cc2)CC1 [Compound 9, N,N-diethyl-4-[(4-ethyl-1-piperazinyl)[(3-fluorophenyl)imino]methyl]-benzamide]
- pKi [1]: < 5.00
- inhibition at 25 µM [2]: 97%
- pKi [3]: 7.23

Compound: 3-[(phenylimino)[4-(2-propenyl)-1-piperazinyl]methyl]-benzoic acid methyl ester [Compound 55]
- Ki [1]: > 10000 nM
- Ki [3]: 1170 nM

Compound: CCN(CC)C(=O)c1ccc(C(=Nc2ccccc2C(F)(F)F)N2CCN(Cc3ccccc3)CC2)cc1 [Compound 23, N,N-diethyl-4-[[4-(phenylmethyl)-1-piperazinyl][[2-(trifluoromethyl)phenyl]imino]methyl]-benzamide]
- pKi [1]: 5.92
- pKi [3]: 8.91

Compound: CCCN(CCC)C(=O)c1ccc(C(=Nc2cc(Cl)cc(Cl)c2)N2CCN(CC)CC2)cc1 [Compound 12, 4-[[(3,5-dichlorophenyl)imino](4-ethyl-1-piperazinyl)methyl]-N,N-dipropyl-benzamide]
- Ki [1]: > 10000 nM
- inhibition at 25 µM [2]: 98%
- Ki [3]: 674 nM

Compound: CCN(CC)C(=O)c1ccc(C(=Nc2ccccc2Cl)N2CCN(CCc3ccccc3)CC2)cc1 [Compound 25, 4-[[(2-chlorophenyl)imino][4-(2-phenylethyl)-1-piperazinyl]methyl]-N,N-diethyl-benzamide]
- pKi [1]: < 5.00
- pKi [3]: < 5.00

Compound: COCCN1CCN(C(=Nc2ccccc2C(F)(F)F)c2ccc(C(=O)OC)cc2)CC1 [Compound 44, 4-[[4-(2-methoxyethyl)-1-piperazinyl][[2-(trifluoromethyl)phenyl]imino]methyl]-benzoic acid methyl ester]
- Ki [1]: 9150 nM
- Ki [3]: 82.6 nM

Compound: CCN1CCN(C(=Nc2cccc(Cl)c2)c2ccc(C(=O)OC)cc2)CC1 [Compound 29, 4-[[(3-chlorophenyl)imino](4-ethyl-1-piperazinyl)methyl]-benzoic acid methyl ester]
- Ki [1]: > 10000 nM
- inhibition at 25 µM [2]: 97%
- Ki [3]: 283 nM
